# Test results taken from patent US11000033B2, “Ketone or oxime compound, and herbicide” (NISSAN CHEMICAL CORPORATION, priority 2014, dated 2021).
# Key:
# Apera spica-venti = experiment: Test Example 4: herbicidal effect by soil treatment (symbol L); format: in vivo; conditions: application herbicide amount 320 g/ha
# How it was run: (§1)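 Seeds were sown in sterilized diluvial soil, covered with about 1.5 cm of soil, and the soil surface was sprayed with a water-diluted emulsion of the compound at a predetermined rate. Plants grew in a greenhouse at 25° C. to 30° C.; effects were scored visually 3 weeks after application.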
# Veronica persica = experiment: Test Example 4: herbicidal effect by soil treatment (symbol R); format: in vivo; conditions: application herbicide amount 320 g/ha
# How it was run: as §1
# [1] = test system: Echinochloa oryzacola Vasing.; experiment: Test Example 2: herbicidal activity, application during weed generation in submerged conditions (symbol A); format: in vivo; conditions: Table 23; application herbicide amount 320 g/ha; grade 0-5 by criteria of Test Example 1
# How it was run: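 Steps: fill pots with alluvial soil; add water to 4 cm depth; co-sow the three weeds; grow at 25° C. to 30° C. under glass; at 1–2 leaves, dose the floodwater with diluted emulsion; rate damage visually after 3 weeks.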
# Avena fatua = experiment: Test Example 5: herbicidal effect by foliage application, plastic box (symbol I); format: in vivo; conditions: 320 g/ha, 3 weeks after application
# How it was run: (§2)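 Greenhouse foliar test: seedlings at 14 days, grown 25° C. to 30° C. in sterilized diluvial soil; compound applied as an aqueous dilution of an emulsion; response read 3 weeks after spraying.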
# Stellaria media = experiment: Test Example 4: herbicidal effect by soil treatment (symbol P); format: in vivo; conditions: application herbicide amount 320 g/ha
# How it was run: as §1
# rice plant = experiment: Test Example 5: effect on crop by foliage application, plastic box (symbol b); format: in vivo; conditions: 320 g/ha, 3 weeks after application
# How it was run: (§3)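 Box culture: sterile diluvial soil, seeds spot-sown, ~1.5 cm cover, raised under glass at 25–30° C.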
# Chenopodium album [2] = experiment: Test Example 5: herbicidal effect by foliage application, plastic box (symbol O); format: in vivo; conditions: 320 g/ha, 3 weeks after application
# How it was run: as §2
# beet = experiment: Test Example 5: effect on crop by foliage application, plastic box (symbol f); format: in vivo; conditions: 320 g/ha, 3 weeks after application
# How it was run: as §3
# Monochoria vaginalis = experiment: Test Example 1: herbicidal activity, application before weed generation in submerged conditions (symbol C); format: in vivo; conditions: application herbicide amount 320 g/ha
# How it was run: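 Weed control was rated three weeks after treatment on a 0–5 scale, from 5% or lower up to 90% or more. Pre-emergence water-surface application of diluted emulsion at a predetermined rate was made on the day of sowing, in flooded (4 cm water) pots containing rice seedlings, kept at 25–30 °C under glass.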
# Setaria viridis [3] = experiment: Test Example 4: herbicidal effect by soil treatment (symbol G); format: in vivo; conditions: application herbicide amount 320 g/ha
# How it was run: as §1
# Chenopodium album [4] = experiment: Test Example 4: herbicidal effect by soil treatment (symbol O); format: in vivo; conditions: application herbicide amount 320 g/ha
# How it was run: as §1
# Galium spurium = experiment: Test Example 4: herbicidal effect by soil treatment (symbol Q); format: in vivo; conditions: application herbicide amount 320 g/ha
# How it was run: as §1
# Setaria viridis [5] = experiment: Test Example 5: herbicidal effect by foliage application, plastic box (symbol G); format: in vivo; conditions: 320 g/ha, 3 weeks after application
# How it was run: as §2
# Amaranthus retroflexus = experiment: Test Example 4: herbicidal effect by soil treatment (symbol N); format: in vivo; conditions: application herbicide amount 320 g/ha
# How it was run: as §1
structure (smiles),measurement,setting,value
CCC(C)C(CC1CC(O)=C(c2c(C)cc(C)cc2C)C1=O)=NOC (stereo not drawn) [1-066],L (Apera spica-venti) herbicidal effect grade,Apera spica-venti,5 (Herbicidal ratio of 90% or more (almost completely withered))
same,R (Veronica persica) herbicidal effect grade,Veronica persica,0 (Herbicidal ratio of 5% or lower (almost no effect))
same,"Herbicidal effect grade, A: Echinochloa oryzacola Vasing.",[1],2 (Herbicidal ratio of 20% or higher and lower than 40%)
same,"I: Avena fatua, herbicidal effect grade",Avena fatua,4 (Herbicidal ratio of 70% or higher and lower than 90%)
same,P (Stellaria media) herbicidal effect grade,Stellaria media,0 (Herbicidal ratio of 5% or lower (almost no effect))
same,"b: directly sowed rice plant, effect on crop grade",rice plant,5 (Herbicidal ratio of 90% or more (almost completely withered))
same,"O: Chenopodium album, herbicidal effect grade",Chenopodium album [2],1 (Herbicidal ratio of 5% or higher and lower than 20%)
same,"f: beet, effect on crop grade",beet,0 (Herbicidal ratio of 5% or lower (almost no effect))
same,"Herbicidal effect grade, C: Monochoria vaginalis",Monochoria vaginalis,0 (Herbicidal ratio of 5% or lower (almost no effect))
same,G (Setaria viridis) herbicidal effect grade,Setaria viridis [3],4 (Herbicidal ratio of 70% or higher and lower than 90%)
same,O (Chenopodium album) herbicidal effect grade,Chenopodium album [4],0 (Herbicidal ratio of 5% or lower (almost no effect))
same,Q (Galium spurium) herbicidal effect grade,Galium spurium,0 (Herbicidal ratio of 5% or lower (almost no effect))
same,melting point,,154 to 156 °C
same,"G: Setaria viridis, herbicidal effect grade",Setaria viridis [5],5 (Herbicidal ratio of 90% or more (almost completely withered))
same,N (Amaranthus retroflexus) herbicidal effect grade,Amaranthus retroflexus,0 (Herbicidal ratio of 5% or lower (almost no effect))
